Assay results published in paper PMC5218480 (PLoS ONE, 2017).

Test system: MV-4-11 cells
Test: Gene expression microarray analysis (Affymetrix PrimeView) and GSEA
Assay type: cell-based, human
Parameters: RFU PODN (11730768_x_at) / Fold change /veh PODN (11730768_x_at) / RFU LINC00158 (11744669_a_at) / Fold change /veh LINC00158 (11744669_a_at) / RFU DUSP10 (11751237_a_at) / Fold change /veh DUSP10 (11751237_a_at) / RFU ID3 (11757404_x_at) / Fold change /veh ID3 (11757404_x_at) / RFU PLEKHG5 (11737974_s_at) / Fold change /veh PLEKHG5 (11737974_s_at) / RFU LRRC4B (11730491_at) / Fold change /veh LRRC4B (11730491_at) / RFU GIMAP4 (11747438_a_at) / Fold change /veh GIMAP4 (11747438_a_at) / RFU KRT8 (11758183_x_at) / Fold change /veh KRT8 (11758183_x_at) / RFU CNN1 (11734310_a_at) / Fold change /veh CNN1 (11734310_a_at) / RFU VPS37D (11726825_at) / Fold change /veh VPS37D (11726825_at) / RFU C10orf10 (11716522_x_at) / Fold change /veh C10orf10 (11716522_x_at) / RFU KIR2DL2 /// KIR2DL4 /// KIR2DL5A /// KIR2DL5B /// KIR2DS1 /// KIR2DS2 /// KIR2DS3 /// KIR2DS4 /// KIR3DL3 /// KIR3DL3 /// KIR3DS1 (11738374_at) / Fold change /veh KIR2DL2 /// KIR2DL4 /// KIR2DL5A /// KIR2DL5B /// KIR2DS1 /// KIR2DS2 /// KIR2DS3 /// KIR2DS4 /// KIR3DL3 /// KIR3DL3 /// KIR3DS1 (11738374_at) / RFU C1QL1 (11718748_at) / Fold change /veh C1QL1 (11718748_at) / RFU TMPRSS4 (11747572_a_at) / Fold change /veh TMPRSS4 (11747572_a_at) / RFU HAMP (11756126_x_at) / Fold change /veh HAMP (11756126_x_at) / RFU RNFT2 (11725882_a_at) / Fold change /veh RNFT2 (11725882_a_at) / RFU NR4A2 (11747474_a_at) / Fold change /veh NR4A2 (11747474_a_at) / RFU ABCC12 (11746883_a_at) / Fold change /veh ABCC12 (11746883_a_at) / RFU TMEM136 (11760407_x_at) / Fold change /veh TMEM136 (11760407_x_at) / RFU CLDN22 /// WWC2 (11732394_at) / Fold change /veh CLDN22 /// WWC2 (11732394_at) / RFU HLA-DPB1 (11760878_x_at) / Fold change /veh HLA-DPB1 (11760878_x_at) / RFU SPINT1 (11716480_a_at) / Fold change /veh SPINT1 (11716480_a_at) / RFU GAP43 (11754022_s_at) / Fold change /veh GAP43 (11754022_s_at) / RFU A4GNT (11735810_at) / Fold change /veh A4GNT (11735810_at) / RFU PRB3 (11715151_x_at) / Fold change /veh PRB3 (11715151_x_at) / RFU TUBB4B (11761932_at) / Fold change /veh TUBB4B (11761932_at) / RFU CAPN14 (11732068_a_at) / Fold change /veh CAPN14 (11732068_a_at) / RFU TMCC2 (11721928_a_at) / Fold change /veh TMCC2 (11721928_a_at) / RFU IRGQ (11745062_a_at) / Fold change /veh IRGQ (11745062_a_at) / RFU FAM174B (11720279_a_at) / Fold change /veh FAM174B (11720279_a_at) / RFU TMPRSS4 (11748680_a_at) / Fold change /veh TMPRSS4 (11748680_a_at) / RFU FAM212B (11763350_a_at) / Fold change /veh FAM212B (11763350_a_at) / RFU PLEKHG5 (11743358_a_at) / Fold change /veh PLEKHG5 (11743358_a_at) / RFU ZSCAN30 (11745921_a_at) / Fold change /veh ZSCAN30 (11745921_a_at) / RFU CMKLR1 (11741424_a_at) / Fold change /veh CMKLR1 (11741424_a_at) / RFU LOC101060620 /// MAPK8IP1 (11723275_at) / Fold change /veh LOC101060620 /// MAPK8IP1 (11723275_at) / RFU SPTSSB (11747773_x_at) / Fold change /veh SPTSSB (11747773_x_at) / RFU PRSS12 (11739890_at) / Fold change /veh PRSS12 (11739890_at) / RFU BIN1 (11741810_x_at) / Fold change /veh BIN1 (11741810_x_at) / RFU WNT11 (11732464_a_at) / Fold change /veh WNT11 (11732464_a_at) / RFU C10orf10 (11716521_a_at) / Fold change /veh C10orf10 (11716521_a_at) / RFU C5orf56 (11738089_at) / Fold change /veh C5orf56 (11738089_at) / RFU CYB561 (11721691_x_at) / Fold change /veh CYB561 (11721691_x_at) / RFU ANKRD19P (11752326_a_at) / Fold change /veh ANKRD19P (11752326_a_at) / RFU OR2T12 /// OR2T33 /// OR2T8 (11738714_s_at) / Fold change /veh OR2T12 /// OR2T33 /// OR2T8 (11738714_s_at) / RFU VCAN (11748164_a_at) / Fold change /veh VCAN (11748164_a_at) / RFU JSRP1 (11732532_at) / Fold change /veh JSRP1 (11732532_at) / RFU KRTAP10-11 (11738290_x_at) / Fold change /veh KRTAP10-11 (11738290_x_at) / RFU MYO3A (11730013_a_at) / Fold change /veh MYO3A (11730013_a_at) / RFU EBF3 (11725865_a_at) / Fold change /veh EBF3 (11725865_a_at) / RFU CAMK2N1 (11719241_x_at) / Fold change /veh CAMK2N1 (11719241_x_at) / RFU C5orf56 (11738088_a_at) / Fold change /veh C5orf56 (11738088_a_at) / RFU OLFML3 (11715873_a_at) / Fold change /veh OLFML3 (11715873_a_at) / RFU LOC100653217 /// NTM (11731650_a_at) / Fold change /veh LOC100653217 /// NTM (11731650_a_at) / RFU MAPK11 (11762145_a_at) / Fold change /veh MAPK11 (11762145_a_at) / RFU FIZ1 (11724087_x_at) / Fold change /veh FIZ1 (11724087_x_at) / RFU OASL (11726364_x_at) / Fold change /veh OASL (11726364_x_at) / RFU SOX15 (11748057_x_at) / Fold change /veh SOX15 (11748057_x_at) / RFU CD79A (11719716_a_at) / Fold change /veh CD79A (11719716_a_at) / RFU HIST1H1D (11736915_at) / Fold change /veh HIST1H1D (11736915_at) / RFU CASKIN2 (11723855_a_at) / Fold change /veh CASKIN2 (11723855_a_at) / RFU LOC730098 (11760151_x_at) / Fold change /veh LOC730098 (11760151_x_at) / RFU OR4N2 (11742367_at) / Fold change /veh OR4N2 (11742367_at) / RFU PRRT2 (11749266_a_at) / Fold change /veh PRRT2 (11749266_a_at) / RFU SNX32 (11753110_a_at) / Fold change /veh SNX32 (11753110_a_at) / RFU CDHR5 (11726645_a_at) / Fold change /veh CDHR5 (11726645_a_at) / RFU RCAN1 (11760418_a_at) / Fold change /veh RCAN1 (11760418_a_at) / RFU FAM167A (11723789_a_at) / Fold change /veh FAM167A (11723789_a_at) / RFU FAM26E (11764081_at) / Fold change /veh FAM26E (11764081_at) / RFU ISYNA1 (11749810_s_at) / Fold change /veh ISYNA1 (11749810_s_at) / RFU ACY1 (11761880_at) / Fold change /veh ACY1 (11761880_at) / RFU 11764098_at / Fold change /veh 11764098_at / RFU SAMD14 (11745864_x_at) / Fold change /veh SAMD14 (11745864_x_at) / RFU NPB (11741838_a_at) / Fold change /veh NPB (11741838_a_at) / RFU TMPRSS6 (11731388_a_at) / Fold change /veh TMPRSS6 (11731388_a_at) / RFU KRTAP10-2 (11738614_at) / Fold change /veh KRTAP10-2 (11738614_at) / RFU ARHGAP8 /// PRR5-ARHGAP8 (11727945_x_at) / Fold change /veh ARHGAP8 /// PRR5-ARHGAP8 (11727945_x_at) / RFU KRTAP5-7 /// NADSYN1 (11734609_at) / Fold change /veh KRTAP5-7 /// NADSYN1 (11734609_at) / RFU RASL12 (11751679_a_at) / Fold change /veh RASL12 (11751679_a_at) / RFU CDKN2B (11736163_a_at) / Fold change /veh CDKN2B (11736163_a_at) / RFU PRF1 (11729649_at) / Fold change /veh PRF1 (11729649_at) / RFU, ZNF638 /// ZNF638-IT1 / Fold change vs veh, ZNF638 /// ZNF638-IT1 / RFU, PANK3 / Fold change vs veh, PANK3 / RFU, SH3YL1 / Fold change vs veh, SH3YL1 / RFU, ZEB2 / Fold change vs veh, ZEB2 / RFU, NRIP1 / Fold change vs veh, NRIP1 / RFU, PTTG1IP / Fold change vs veh, PTTG1IP / RFU, CAPN2 / Fold change vs veh, CAPN2 / RFU, MED14 / Fold change vs veh, MED14 / RFU, SNORA58 / Fold change vs veh, SNORA58 / RFU, C1orf63 / Fold change vs veh, C1orf63 / RFU, LRRFIP1 / Fold change vs veh, LRRFIP1 / RFU, NDUFAF7 / Fold change vs veh, NDUFAF7 / RFU, SLC12A2 / Fold change vs veh, SLC12A2 / RFU, IBTK / Fold change vs veh, IBTK / RFU, ESF1 / Fold change vs veh, ESF1 / Fold change vs veh, TMEM50B / RFU, TAOK1 / Fold change vs veh, TAOK1 / RFU, ACBD3 / Fold change vs veh, ACBD3 / RFU, TMA16 / Fold change vs veh, TMA16 / RFU, RWDD3 / Fold change vs veh, RWDD3 / RFU, BCAT1 / Fold change vs veh, BCAT1 / RFU, EDEM3 / Fold change vs veh, EDEM3 / RFU, TMEM33 / Fold change vs veh, TMEM33 / RFU, WDR75 / Fold change vs veh, WDR75 / RFU, AHCTF1 / Fold change vs veh, AHCTF1 / RFU, TFRC / Fold change vs veh, TFRC / RFU, ZDHHC17 / Fold change vs veh, ZDHHC17 / RFU, NOM1 / Fold change vs veh, NOM1 / RFU, ARL8B / Fold change vs veh, ARL8B / RFU, ZBTB11 / Fold change vs veh, ZBTB11 / RFU, TAMM41 / Fold change vs veh, TAMM41 / RFU, KIAA1704 /// LOC100996395 / Fold change vs veh, KIAA1704 /// LOC100996395 / RFU, ING1 / Fold change vs veh, ING1 / RFU, TRMT61B / Fold change vs veh, TRMT61B / RFU, FUBP3 / Fold change vs veh, FUBP3 / RFU, TP53 / Fold change vs veh, TP53 / RFU, TNKS2 / Fold change vs veh, TNKS2 / RFU, ZFP14 / Fold change vs veh, ZFP14 / RFU, ACTR2 / Fold change vs veh, ACTR2 / RFU, PPP3R1 / Fold change vs veh, PPP3R1 / RFU, PIK3R1 / Fold change vs veh, PIK3R1 / RFU, HNRNPA1 / Fold change vs veh, HNRNPA1 / RFU, RNF170 / Fold change vs veh, RNF170 / RFU, ZNF28 / Fold change vs veh, ZNF28 / RFU, RNGTT / Fold change vs veh, RNGTT / RFU, OGT / Fold change vs veh, OGT / RFU, BRD1 / Fold change vs veh, BRD1 / RFU, MARS / Fold change vs veh, MARS / RFU, ZNF655 / Fold change vs veh, ZNF655 / RFU, FAHD1 / Fold change vs veh, FAHD1 / RFU, BDP1 / Fold change vs veh, BDP1 / RFU, LRRCC1 / Fold change vs veh, LRRCC1 / RFU, ARID1A / Fold change vs veh, ARID1A / RFU, ZNF146 / Fold change vs veh, ZNF146 / RFU, ZNF330 / Fold change vs veh, ZNF330 / RFU, GPN3 / Fold change vs veh, GPN3 / RFU, C9orf123 / Fold change vs veh, C9orf123 / RFU, N4BP2L2 / Fold change vs veh, N4BP2L2 / RFU, ARFIP1 / Fold change vs veh, ARFIP1 / RFU, FAM179B / Fold change vs veh, FAM179B / RFU, BCL10 / Fold change vs veh, BCL10 / RFU, UHRF1BP1L / Fold change vs veh, UHRF1BP1L / RFU, BET1 / Fold change vs veh, BET1 / RFU, CNOT2 / Fold change vs veh, CNOT2 / RFU, ZNF268 / Fold change vs veh, ZNF268 / Fold change vs veh, ZNF507 / RFU, DGCR2 / Fold change vs veh, DGCR2 / RFU, WDSUB1 / Fold change vs veh, WDSUB1 / Fold change vs veh, HSP90B1 /// MIR3652 / RFU, ADSS / Fold change vs veh, ADSS / RFU, GK / Fold change vs veh, GK / RFU, ZNF148 / Fold change vs veh, ZNF148 / RFU, TAF9 / Fold change vs veh, TAF9 / RFU, SLC1A5 / Fold change vs veh, SLC1A5 / RFU, SLMO2 / Fold change vs veh, SLMO2 / RFU, ABCC4 / Fold change vs veh, ABCC4 / RFU, LOC101060439 /// RAP1B / Fold change vs veh, LOC101060439 /// RAP1B / RFU, RFX7 / Fold change vs veh, RFX7 / RFU, GTPBP10 / Fold change vs veh, GTPBP10 / RFU, CNEP1R1 / Fold change vs veh, CNEP1R1 / RFU, BIVM-ERCC5 /// ERCC5 / Fold change vs veh, BIVM-ERCC5 /// ERCC5 / RFU, ILF3 / Fold change vs veh, ILF3 / RFU 11762660_at / Fold change /veh 11762660_at / RFU VCAN (11757783_s_at) / Fold change /veh VCAN (11757783_s_at) / RFU DDX43 (11728927_at) / Fold change /veh DDX43 (11728927_at) / RFU KRT8 (11758188_x_at) / Fold change /veh KRT8 (11758188_x_at) / RFU NKD1 (11759106_at) / Fold change /veh NKD1 (11759106_at) / RFU SRD5A1 (11742802_a_at) / Fold change /veh SRD5A1 (11742802_a_at) / RFU TPSAB1 /// TPSB2 (11721975_s_at) / Fold change /veh TPSAB1 /// TPSB2 (11721975_s_at) / RFU GSTM3 (11746129_a_at) / Fold change /veh GSTM3 (11746129_a_at) / RFU IL23R (11737362_x_at) / Fold change /veh IL23R (11737362_x_at) / RFU TMEM51 (11727254_a_at) / Fold change /veh TMEM51 (11727254_a_at) / RFU PIWIL2 (11732686_x_at) / Fold change /veh PIWIL2 (11732686_x_at) / RFU ORM1 (11744905_x_at) / Fold change /veh ORM1 (11744905_x_at) / RFU CCDC152 (11743942_at) / Fold change /veh CCDC152 (11743942_at) / RFU ECM1 (11717891_a_at) / Fold change /veh ECM1 (11717891_a_at) / RFU IL23R (11748794_a_at) / Fold change /veh IL23R (11748794_a_at) / RFU TNFAIP8L3 (11732012_x_at) / Fold change /veh TNFAIP8L3 (11732012_x_at) / RFU MBOAT4 (11741988_at) / Fold change /veh MBOAT4 (11741988_at) / RFU 11764193_at / Fold change /veh 11764193_at / RFU TMEM53 (11763286_at) / Fold change /veh TMEM53 (11763286_at) / RFU MAGEB2 (11727129_at) / Fold change /veh MAGEB2 (11727129_at) / RFU TMEM200A (11744735_a_at) / Fold change /veh TMEM200A (11744735_a_at) / RFU CCDC152 (11751479_a_at) / Fold change /veh CCDC152 (11751479_a_at) / RFU FAM211A (11726209_a_at) / Fold change /veh FAM211A (11726209_a_at) / RFU RGS16 (11746705_a_at) / Fold change /veh RGS16 (11746705_a_at) / RFU VCAN (11755009_s_at) / Fold change /veh VCAN (11755009_s_at) / RFU RHOB (11743442_s_at) / Fold change /veh RHOB (11743442_s_at) / RFU RGS16 (11720943_a_at) / Fold change /veh RGS16 (11720943_a_at) / RFU RGS16 (11720944_at) / Fold change /veh RGS16 (11720944_at) / RFU, VPS4B / Fold change vs veh, VPS4B / RFU, CREB1 / Fold change vs veh, CREB1 / RFU, DNAJC13 / Fold change vs veh, DNAJC13 / RFU, GNAQ / Fold change vs veh, GNAQ / RFU, CDK5R1 / Fold change vs veh, CDK5R1 / RFU, ZRANB3 / Fold change vs veh, ZRANB3 / RFU, CUL4A / Fold change vs veh, CUL4A / RFU, CCNY / Fold change vs veh, CCNY / RFU, UFL1 / Fold change vs veh, UFL1 / RFU, COG3 / Fold change vs veh, COG3 / RFU, DIAPH2 / Fold change vs veh, DIAPH2 / RFU, SKA2 / Fold change vs veh, SKA2 / RFU, AFF3 / Fold change vs veh, AFF3 / RFU, LMF1 / Fold change vs veh, LMF1 / RFU, IPO11 / Fold change vs veh, IPO11 / RFU, DFFB / Fold change vs veh, DFFB / RFU, FOXP1 / Fold change vs veh, FOXP1 / RFU, CARD8 / Fold change vs veh, CARD8 / RFU, STRN3 / Fold change vs veh, STRN3 / RFU, ADK / Fold change vs veh, ADK / RFU, RASSF2 / Fold change vs veh, RASSF2 / RFU, WIPF1 / Fold change vs veh, WIPF1 / RFU, LARP1B / Fold change vs veh, LARP1B / RFU, RASA1 / Fold change vs veh, RASA1 / RFU, RB1 / Fold change vs veh, RB1 / RFU, PPFIA1 / Fold change vs veh, PPFIA1 / RFU, MAT2A / Fold change vs veh, MAT2A / RFU, CCT5 / Fold change vs veh, CCT5 / RFU, WDR92 / Fold change vs veh, WDR92 / RFU, CUX1 / Fold change vs veh, CUX1 / RFU, TTC7A / Fold change vs veh, TTC7A / RFU, TMEM135 / Fold change vs veh, TMEM135 / RFU, DEPTOR / Fold change vs veh, DEPTOR / RFU, CPM / Fold change vs veh, CPM / RFU, DNAJB6 / Fold change vs veh, DNAJB6 / RFU, CACNA2D3 / Fold change vs veh, CACNA2D3 / RFU, DTX4 / Fold change vs veh, DTX4 / RFU, TFCP2 / Fold change vs veh, TFCP2 / RFU, GMCL1 /// GMCL1P1 / Fold change vs veh, GMCL1 /// GMCL1P1 / RFU, AEBP2 / Fold change vs veh, AEBP2 / RFU, SNHG1 /// SNORD22 /// SNORD25 /// SNORD26 /// SNORD27 /// SNORD28 /// SNORD29 /// SNORD31 / Fold change vs veh, SNHG1 /// SNORD22 /// SNORD25 /// SNORD26 /// SNORD27 /// SNORD28 /// SNORD29 /// SNORD31 / Fold change (Aza/veh), C12orf56 (ProbeSet 11735607_a_at) / Fold change (ACY-1035/veh), C12orf56 (ProbeSet 11735607_a_at) / Fold change (Aza/veh), FGFR1OP (ProbeSet 11751329_s_at) / Fold change (ACY-1035/veh), FGFR1OP (ProbeSet 11751329_s_at) / Fold change (Aza/veh), VPS36 (ProbeSet 11739960_a_at) / Fold change (ACY-1035/veh), VPS36 (ProbeSet 11739960_a_at) / RFU SYPL1 (11715823_x_at) / Fold change /veh SYPL1 (11715823_x_at) / RFU IGFBP7 (11715501_s_at) / Fold change /veh IGFBP7 (11715501_s_at) / RFU REEP3 (11722064_at) / Fold change /veh REEP3 (11722064_at) / RFU IGLL1 (11728026_x_at) / Fold change /veh IGLL1 (11728026_x_at): dose or concentration left out as unconfirmed
Conditions: MV-4-11 cells, 48 hours

Nc1ncn([C@@H]2O[C@H](CO)[C@@H](O)[C@H]2O)c(=O)n1 [azacitidine]
Fold change /veh TPSAB1 /// TPSB2 (11721975_s_at): 1.21
